From US20220259196A1, “2-AMINOPYRIMIDINE COMPOUND AND USES THEREOF” (Shenyang Pharmaceutical University, priority 2019, published 2022) come the findings set out here.

One experiment addresses T1, FLT3 (Homo sapiens, UniProt P36888).
T1 sequence (P36888 27-993): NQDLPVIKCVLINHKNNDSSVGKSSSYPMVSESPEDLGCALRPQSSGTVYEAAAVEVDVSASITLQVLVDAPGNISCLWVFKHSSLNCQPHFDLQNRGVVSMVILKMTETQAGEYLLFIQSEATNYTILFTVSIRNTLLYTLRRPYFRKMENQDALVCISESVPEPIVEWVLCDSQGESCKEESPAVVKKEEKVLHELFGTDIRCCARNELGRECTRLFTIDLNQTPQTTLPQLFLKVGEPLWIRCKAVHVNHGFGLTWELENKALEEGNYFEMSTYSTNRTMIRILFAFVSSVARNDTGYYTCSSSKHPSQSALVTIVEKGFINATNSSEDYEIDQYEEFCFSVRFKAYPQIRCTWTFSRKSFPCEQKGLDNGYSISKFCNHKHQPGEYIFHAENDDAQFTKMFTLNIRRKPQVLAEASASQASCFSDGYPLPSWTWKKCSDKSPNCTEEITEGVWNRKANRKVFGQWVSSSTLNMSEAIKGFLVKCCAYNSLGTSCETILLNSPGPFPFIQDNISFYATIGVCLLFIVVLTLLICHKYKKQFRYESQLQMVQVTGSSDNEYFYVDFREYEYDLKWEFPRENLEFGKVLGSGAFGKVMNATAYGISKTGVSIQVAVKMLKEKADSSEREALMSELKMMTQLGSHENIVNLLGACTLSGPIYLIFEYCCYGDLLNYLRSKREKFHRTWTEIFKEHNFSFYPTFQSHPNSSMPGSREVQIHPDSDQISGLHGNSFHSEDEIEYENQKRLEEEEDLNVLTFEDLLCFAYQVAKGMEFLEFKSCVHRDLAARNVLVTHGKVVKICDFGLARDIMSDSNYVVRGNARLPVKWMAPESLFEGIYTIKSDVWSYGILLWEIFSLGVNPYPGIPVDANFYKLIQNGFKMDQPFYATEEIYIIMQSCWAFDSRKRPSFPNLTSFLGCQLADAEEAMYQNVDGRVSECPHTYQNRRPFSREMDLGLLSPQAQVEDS
Nature of the experiment: in vitro FLT3 kinase activity test, Mobility Shift Assay. Type of experiment: biochemical. As to conditions: compound concentration 0.1 μM; read-out: Percentage of inhibition against FLT3 at 0.1 μM. The procedure: The in vitro JAK2 and FLT3 kinase activity test was performed on the compounds of the 2-aminopyrimidine backbone of the above formula I (concentration 0.1 μM) according to the present invention using Mobility Shift Assay.
(§1) The kinase buffer was composed of 50 mM HEPEs (pH 7.5) and 0.0015% BRIJ-35. The stop buffer contained a mixture of 100 mM HEPES (pH 7.5), 0.015% BRIJ-35, 0.2% coating reagent #3 and 50 mM EDTA. The compound to be tested was diluted with 100% DMSO to 50 times the highest concentration required in the reaction. The dilution of compound to be tested (100 μL) was transferred to the wells of a 96-well plate. […] was added to two wells of the plate as a control group and the plate was marked as the source plate. 10 μL of compound was transferred from the source plate to a new 96-well plate to prepare an intermediate plate. In the intermediate plate, an additional 90 μL of kinase buffer was added to each well. The intermediate plate was shaken for 10 minutes, and then 5 μL of each well of the 96-well intermediate plate was copied to a 384-well plate as an analysis plate. The prepared enzyme solution was added to each well of the 384-well plate, then incubated at room temperature for 10 minutes, and then 10 μL of the prepared peptide solution (FAM-labeled peptide and ATP in kinase-based buffer) was added. The sample was incubated at 28° C. for 1 hours, and then 25 μL of buffer was added. The conversion data from the Caliper program was copied and converted to the inhibition rate.
(§2) Inhibition rate (%)=(max−conversion)/(max−min)×100.

For experiment [1], the system named is human myeloid monocytic leukemia cells Molm-13. Nature of the experiment: anti-tumor cell proliferation activity (CCK-8), Molm-13. Type of experiment: cell-based. As to conditions: Molm-13 cells, 72 hours incubation. The procedure:
(§3) The compound of the 2-aminopyrimidine skeleton of the above formula I according to the present invention was tested in vitro to inhibit the activity of human erythroleukemia cells HEL and human myeloid monocytic leukemia cells Molm-13. The control compounds Pacritinib and Fedratinib were prepared by our research group.
(§4) After the cells are resuscitated and passaged 2-3 times to stable state, 10 μL of the cell suspension was pipetted to a cell counting plate for counting, and the cell concentration was adjusted to 10×10^4 cells/mL. No cell solution was added to the outermost wells of the 96-well plate, and 100 μL of cell suspension was added to each of the remaining wells. 100 μL of medium was added to wells B2-B7 as a control group, and other wells were added with different concentrations of the compounds to be tested. After 72 hours of incubation in the incubator, 200 μL, of fresh medium was added to well A1 as a blank group, and then 20 µL of CCK-8 solution was added to each well, and the incubation continued for 4 hours. The 96-well plate was shaken at room temperature for 3 minutes, and then the absorbance at 450 nm wavelength was measured with a microplate reader, and the inhibition rate of cell growth was calculated according to the following formula:
(§5) Inhibition rate (%)=[(A control−A addition)/(A control−A blank)]×100
(§6) IC50 is the drug concentration required to inhibit half of the cell growth. According to the results of drug concentration and inhibition rate, GraphPad Prism version 5 software is used to calculate IC50 through the dose-effect curve.

The target in the next experiment is JAK2 (Homo sapiens, UniProt O60674). Nature of the experiment: in vitro JAK2 kinase activity test, Mobility Shift Assay. It is filed as biochemical. As to conditions: compound concentration 0.1 μM; read-out: Percentage of inhibition against JAK2 at 0.1 μM. The procedure: The in vitro JAK2 and FLT3 kinase activity test was performed on the compounds of the 2-aminopyrimidine backbone of the above formula I (concentration 0.1 μM) according to the present invention using Mobility Shift Assay. The control compounds Pacritinib and Fedratinib were prepared by our research group.
Chain of JAK2 (O60674 whole entry): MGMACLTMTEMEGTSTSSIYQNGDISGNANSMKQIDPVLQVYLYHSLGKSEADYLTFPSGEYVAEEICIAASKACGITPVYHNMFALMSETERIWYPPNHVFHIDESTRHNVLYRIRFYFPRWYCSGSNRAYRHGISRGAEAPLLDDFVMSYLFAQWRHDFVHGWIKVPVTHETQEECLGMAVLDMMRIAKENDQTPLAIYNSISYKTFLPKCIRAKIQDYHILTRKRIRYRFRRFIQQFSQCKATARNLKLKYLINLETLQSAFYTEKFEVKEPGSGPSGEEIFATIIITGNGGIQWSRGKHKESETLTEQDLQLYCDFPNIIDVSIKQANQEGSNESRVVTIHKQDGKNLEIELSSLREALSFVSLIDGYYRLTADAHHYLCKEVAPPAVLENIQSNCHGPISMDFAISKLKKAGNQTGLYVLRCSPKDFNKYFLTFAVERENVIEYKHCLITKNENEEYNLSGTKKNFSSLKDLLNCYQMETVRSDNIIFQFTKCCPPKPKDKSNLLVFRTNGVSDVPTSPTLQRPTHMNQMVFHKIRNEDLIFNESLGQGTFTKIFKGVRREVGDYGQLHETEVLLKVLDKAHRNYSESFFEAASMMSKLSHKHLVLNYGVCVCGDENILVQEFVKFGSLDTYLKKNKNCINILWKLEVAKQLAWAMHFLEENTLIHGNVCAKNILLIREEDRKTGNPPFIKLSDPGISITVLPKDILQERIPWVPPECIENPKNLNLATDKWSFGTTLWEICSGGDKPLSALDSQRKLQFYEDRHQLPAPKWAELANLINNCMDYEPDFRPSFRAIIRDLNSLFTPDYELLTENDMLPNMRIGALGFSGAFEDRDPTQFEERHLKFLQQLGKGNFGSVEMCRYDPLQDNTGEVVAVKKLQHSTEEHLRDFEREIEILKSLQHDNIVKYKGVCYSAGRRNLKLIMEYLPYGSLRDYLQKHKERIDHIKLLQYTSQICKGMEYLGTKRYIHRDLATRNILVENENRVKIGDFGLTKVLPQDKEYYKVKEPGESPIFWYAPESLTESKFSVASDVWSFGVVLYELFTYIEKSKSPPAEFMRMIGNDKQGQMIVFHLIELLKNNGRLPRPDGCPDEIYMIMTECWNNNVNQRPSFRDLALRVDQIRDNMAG
as §1, §2

In experiment [2] the test system is human erythroleukemia cells HEL. Nature of the experiment: anti-tumor cell proliferation activity (CCK-8), HEL. As to conditions: 72 hours incubation. It is filed as cell-based. How it is done:
as §3, §4, §5, §6

Turning to `CC(=O)c1ccc(NC(=O)N2CCN(c3ccnc(Nc4ccc(N5CCOCC5)cc4)n3)CC2)cc1` [Example 6, N-(4-acetylphenyl)-4-(2-{[4-(morpholin-4-yl)phenyl]amino}pyrimidin-4-yl)piperazine-1-carboxamide], the figures for the inhibition at 0.1 µM on FLT3 and on JAK2 were 72.3% and 76.7%, respectively. Besides, the results for the concentration for half-maximal inhibition (IC50) in experiment [1] and in experiment [2] were 77 nM and 4300 nM, respectively.
As to `Cc1cnc(Nc2ccc(N3CCOCC3)cc2)nc1N1CCN(C(=O)Nc2ccc(C#N)cc2)CC1` [Example 20, N-(4-cyanophenyl)-4-(5-methyl-2-{[4-(morpholin-4-yl)phenyl]amino}pyrimidin-4-yl)piperazine-1-carboxamide], the inhibition at 0.1 µM on FLT3 turned out to be 95.2%; on JAK2, 88.5%. Also, the concentration for half-maximal inhibition (IC50) in experiment [1] came to 72 nM; in experiment [2] it was 900 nM.
`CC(=O)c1ccc(NC(=O)N2CCN(c3nc(Nc4ccc(N5CCOCC5)cc4)ncc3C)CC2)cc1` [Example 22, N-(4-acetylphenyl)-4-(5-methyl-2-{[4-(morpholin-4-yl)phenyl]amino}pyrimidin-4-yl)piperazine-1-carboxamide]: the inhibition at 0.1 µM came out at 99.1% at FLT3 and 81.8% at JAK2. The IC50 in experiment [1] stood at 42 nM; in experiment [2] it was 800 nM.
On to `CC(=O)c1ccc(NC(=O)N2CCN(c3nc(Nc4ccc(N5CCOCC5)cc4)ncc3C(F)(F)F)CC2)cc1` [Example 26, N-(4-acetylphenyl)-4-(5-trifluoromethyl-2-{[4-(morpholin-4-yl)phenyl]amino}pyrimidin-4-yl)piperazine-1-carboxamide], for which the inhibition at 0.1 µM on FLT3 is 82.5%; at JAK2, 74.6%. Further, the IC50 was 83 nM in experiment [1] and 4600 nM in experiment [2].
As for `CC(=O)c1ccc(NC(=O)NC2CN(c3nc(Nc4ccc(N5CCOCC5)cc4)ncc3C)C2)cc1` [Example 31, 1-(4-acetylphenyl)-3-[1-(5-methyl-2-{[4-(morpholin-4-yl)phenyl]amino}pyrimidin-4-yl)azetidin-3-yl]urea], the inhibition at 0.1 µM on FLT3 is 50%; on JAK2 it was 21.9%.
As for `CC(=O)c1ccc(NC(=O)N2CCC(Nc3nc(Nc4ccc(N5CCOCC5)cc4)ncc3C)CC2)cc1` [Example 32, N-(4-acetylphenyl)-4-[(5-methyl-2-{[4-(morpholin-4-yl)phenyl]amino}pyrimidin-4-yl)amino]piperidine-1-carboxamide], the figures for the inhibition at 0.1 µM at FLT3 and on JAK2 were 78.6% and 80.5%, respectively. Besides, the IC50 in experiment [1] worked out at 350 nM; in experiment [2] it was 6700 nM.
In the case of `CC(=O)c1ccc(NC(=O)C2CCN(c3nc(Nc4ccc(N5CCOCC5)cc4)ncc3C)CC2)cc1` [Example 33, N-(4-acetylphenyl)-1-(5-methyl-2-{[4-(morpholin-4-yl)phenyl]amino}pyrimidin-4-yl)piperidine-4-carboxamide], the inhibition at 0.1 µM at FLT3 was 97%; at JAK2 it was 74.3%. Also, the IC50 in experiment [1] stood at 62 nM; in experiment [2] it was 1700 nM.
Taken in the same sequence, the figures for `Cc1cnc(Nc2ccc(OCCN3CCCC3)cc2)nc1Nc1cccc(S(=O)(=O)NC(C)(C)C)c1` [Fedratinib, reference compound] were 88.7%, 95.2%, 68 nM and 890 nM.
In the case of `C1=C/COCc2cc(ccc2OCCN2CCCC2)Nc2nccc(n2)-c2cccc(c2)COC/1` [Pacritinib, reference compound], the values for the concentration for half-maximal inhibition (IC50) in experiment [1] and in experiment [2] were 23 nM and 1100 nM, respectively. For the same compound, the inhibition at 0.1 µM on JAK2 stood at 92%.
